Laboratory results as given in paper PMC5310151 (Saudi Pharmaceutical Journal : SPJ, 2016).

Assays:
PPARα = biological target: T1, PPARα (Mus musculus, UniProt P23204); assay: PPRE luciferase reporter assay in HepG2 cells transfected with PPARα; assay type: cell-based; details: HepG2, read-out: Fold induction / PPAR alpha / 50 μg/ml
T1 sequence (P23204 1-468): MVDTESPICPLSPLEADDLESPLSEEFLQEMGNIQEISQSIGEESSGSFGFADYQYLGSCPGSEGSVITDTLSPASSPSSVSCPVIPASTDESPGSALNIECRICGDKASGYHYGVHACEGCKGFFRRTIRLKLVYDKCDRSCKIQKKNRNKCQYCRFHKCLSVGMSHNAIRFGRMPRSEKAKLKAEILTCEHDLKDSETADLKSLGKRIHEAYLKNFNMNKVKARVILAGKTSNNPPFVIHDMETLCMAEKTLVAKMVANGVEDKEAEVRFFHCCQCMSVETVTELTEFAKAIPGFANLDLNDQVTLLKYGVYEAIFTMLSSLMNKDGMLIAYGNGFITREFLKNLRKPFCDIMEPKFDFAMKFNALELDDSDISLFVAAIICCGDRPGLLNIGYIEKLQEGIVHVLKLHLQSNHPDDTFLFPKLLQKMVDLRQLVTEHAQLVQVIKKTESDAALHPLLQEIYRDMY

PPARγ = biological target: T2, PPARγ (Rattus norvegicus, UniProt O88275); assay: PPRE luciferase reporter assay in HepG2 cells transfected with PPARγ; assay type: cell-based; details: HepG2, read-out: Fold induction / PPAR gamma / 50 μg/ml
T2 sequence (O88275 1-505): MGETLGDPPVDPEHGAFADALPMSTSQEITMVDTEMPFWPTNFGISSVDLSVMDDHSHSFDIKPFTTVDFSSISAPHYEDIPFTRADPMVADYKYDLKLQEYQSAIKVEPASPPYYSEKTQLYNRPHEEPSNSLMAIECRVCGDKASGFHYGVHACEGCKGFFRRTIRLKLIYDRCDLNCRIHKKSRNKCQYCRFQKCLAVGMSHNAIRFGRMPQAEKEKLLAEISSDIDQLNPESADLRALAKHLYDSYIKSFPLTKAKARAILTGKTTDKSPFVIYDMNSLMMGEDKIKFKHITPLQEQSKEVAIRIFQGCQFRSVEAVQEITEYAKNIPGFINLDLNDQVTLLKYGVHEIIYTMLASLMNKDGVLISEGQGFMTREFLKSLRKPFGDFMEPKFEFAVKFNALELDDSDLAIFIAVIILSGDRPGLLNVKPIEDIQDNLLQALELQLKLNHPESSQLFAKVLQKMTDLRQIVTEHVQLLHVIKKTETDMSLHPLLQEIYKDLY

Row | SMILES | fold induction (PPARα) | fold induction at 10 µM (PPARγ)
1 | CC(C)(Oc1ccc(C2CC2(Cl)Cl)cc1)C(=O)O (centres unmarked) [Ciprofibrate] | 2.2 ± 0.21 | 
2 | CN(CCOc1ccc(CC2SC(=O)NC2=O)cc1)c1ccccn1 (centres unmarked) [Rosiglitazone] |  | 4.33 ± 0.54
